Columns and labels:
Format in all cases: cell-based
P. aerug JMI 2686 = assay: MIC, antibacterial and synergistic activity; conditions: substance alone
K. pneumo JMI 2674 = assay: MIC, antibacterial and synergistic activity; conditions: K. pneumo JMI 2674, CTX-M15 (ESBL); substance alone
E. coli JMI 4080 = assay: MIC, antibacterial and synergistic activity; conditions: Escherichia coli, JMI4080, E. coli JMI 4080, Tem-10; substance alone
K. pneumo JMI 4088 = assay: MIC, antibacterial and synergistic activity; conditions: substance alone
E. coli JMI 10768 = assay: MIC, antibacterial and synergistic activity; conditions: E. coli JMI 10768, CTX-M15 (Weak ESBL); substance alone
E. coli JMI 11103 = assay: MIC, antibacterial and synergistic activity; conditions: substance alone
[1] = system: metallo β-lactamase producing bacteria; assay: MIC in combination with various antibiotics against metallo β-lactamase producing bacteria (Tables 10-12); conditions: substance alone
Procedure: (§1) In the Tables 10-12, compounds of the present invention were tested in combination with various antibiotics against metallo β-lactamase producing bacteria.

K. pneumo JMI 4106 = assay: MIC, antibacterial and synergistic activity; conditions: substance alone
E. coli JMI 10770 = assay: MIC, antibacterial and synergistic activity; conditions: E. coli JMI 10770, CTX-M15 (Hyper ESBL); substance alone
P. aerug JMI 149 = assay: MIC, antibacterial and synergistic activity; conditions: substance alone
Procedure: as §1

E. coli JMI 2692 = assay: MIC, antibacterial and synergistic activity; conditions: Escherichia coli, JMI2692; E. coli JMI 2692, NDM-1, TEM-1, CTX-M-15; substance alone
Procedure: as §1

E. coli JMI 10767 = assay: MIC, antibacterial and synergistic activity; conditions: E. coli JMI 10767, Wt; substance alone
Procedure: as §1

K. pneumo JMI 2697 = assay: MIC, antibacterial and synergistic activity; conditions: K. pneumo JMI 2697, IMP-4 (Cpase); substance alone
Procedure: as §1

A. baumanii JMI 2659 = assay: MIC, antibacterial and synergistic activity; conditions: Acinetobacter baumannii, JMI2659, substance alone
Procedure: as §1

K. pneumo JMI 2693 = assay: MIC, antibacterial and synergistic activity; conditions: K. pneumo JMI 2693, NDM-1 (Cpase); substance alone
Procedure: as §1

E. coli ATCC 25922 = assay: MIC, antibacterial and synergistic activity; conditions: Escherichia coli, ATCC25922, E. coli ATCC 25922, enzyme Wt; substance alone
Procedure: as §1

E. coli JMI 4103 = assay: MIC, antibacterial and synergistic activity; conditions: Escherichia coli, JMI4103; E. coli JMI 4103, KPC-2, Tem-1, CMY-Type; substance alone
K. pneumo JMI 2681 = assay: MIC, antibacterial and synergistic activity; conditions: substance alone
[2] = P. aerug JMI 2686, KPC-2 (Cpase)
[3] = K. pneumo JMI 4088, KPC-3 (Cpase)
[4] = Enterobacter cloacae, Enterobacter cloacae isolate 25, IMP-4
[5] = Enterobacter cloacae, Enterobacter cloacae isolate 1280, VIM-5
[6] = Enterobacter cloacae, Enterobacter cloacae isolate 1471, VIM-1
[7] = Enterobacter cloacae, Enterobacter cloacae isolate 1874, IMP-21
[8] = Enterobacter cloacae, Enterobacter cloacae isolate 3686, IMP-1
[9] = Escherichia coli, Escherichia coli isolate 13, IMP-1
[10] = Klebsiella aerogenes, Enterobacter aerogenes isolate 47683, VIM-12
[11] = Klebsiella oxytoca, Klebsiella oxytoca isolate 31141, VIM-23
[12] = Klebsiella pneumoniae, Klebsiella pneumoniae isolate 38, NDM-1
[13] = Providencia stuartii, Providencia stuartii isolate 26582, VIM-1
[14] = K. pneumo JMI 4106, KPC-3, TEM-1, SHV-12, SHV-141
[15] = Citrobacter freundii, Citrobacter freundii isolate 49469, NDM-1
[16] = Enterobacter cloacae, Enterobacter cloacae isolate 4, VIM-6
[17] = Enterobacter cloacae, Enterobacter cloacae isolate 10, IMP-26
[18] = Enterobacter cloacae, Enterobacter cloacae isolate 1068, VIM-2
[19] = Enterobacter cloacae, Enterobacter cloacae isolate 53477, NDM-1
[20] = Escherichia coli, Escherichia coli isolate 17, NDM-1
[21] = Escherichia coli, Escherichia coli isolate 49, NDM-1
[22] = Escherichia coli, Escherichia coli isolate 53749, NDM-1
[23] = Klebsiella aerogenes, Enterobacter aerogenes isolate 8397, VIM-1
[24] = Klebsiella oxytoca, Klebsiella oxytoca isolate 24825, IMP-26
[25] = Klebsiella pneumoniae, Klebsiella pneumoniae isolate 16, VIM-5
[26] = Serratia marcescens, Serratia marcescens isolate 35, IMP-4
[27] = Serratia marcescens, Serratia marcescens isolate 36098, IMP-19

C[C@H]1[C@H](NC(=O)/C(=N\OC(C)(C)C(=O)O)c2csc(N)n2)C(=O)N1S(=O)(=O)O [Aztreonam, aztreonam]
MIC (P. aerug JMI 2686; [2]): 512 µg/mL
MIC alone (P. aerug JMI 2686; [2]): >512 µg/mL
MIC (P. aerug JMI 2686; P. aerug JMI 2686, enzyme KPC-2 (Cpase)): 512 µg/mL
MIC alone (K. pneumo JMI 2674): 32 µg/mL
MIC (E. coli JMI 4080): 64 µg/mL
MIC (K. pneumo JMI 4088; [3]): > 512 µg/mL
MIC alone (K. pneumo JMI 4088; [3]): 512 µg/mL
MIC alone (K. pneumo JMI 4088; K. pneumo JMI 4088, enzyme KPC-3 (Cpase)): 512 µg/mL
MIC alone (E. coli JMI 10768): 8 µg/mL
MIC alone (E. coli JMI 11103; E. coli JMI 11103, CTX-M15 (Intermediate ESBL)): 16 µg/mL
MIC (E. coli JMI 11103; Escherichia coli, JMI11103, E. coli JMI 11103, CTX-M15 (Intermediate ESBL)): 32 µg/mL
MIC [1, 4]: 64 µg/mL
MIC [1, 5]: 8 µg/mL
MIC [1, 6]: 64 µg/mL
MIC [1, 7]: ≤ 0.12 µg/mL
MIC [1, 8]: 32 µg/mL
MIC [1, 9]: 16 µg/mL
MIC [1, 10]: 4 µg/mL
MIC [1, 11]: 8 µg/mL
MIC [1, 12]: 64 µg/mL
MIC [1, 13]: 32 µg/mL
MIC (K. pneumo JMI 4106; [14]): > 512 µg/mL
MIC alone (K. pneumo JMI 4106; [14]): 512 µg/mL
MIC alone (K. pneumo JMI 4106; K. pneumo JMI 4106, enzyme KPC-3, TEM-1, SHV-12, SHV-141): 512 µg/mL
MIC alone (E. coli JMI 10770): 64 µg/mL
MIC alone (P. aerug JMI 149; P. aerug JMI 149, Bla+++D+): 512 µg/mL
MIC (P. aerug JMI 149; P. aerug JMI 149, enzyme Bla+++D+): 512 µg/mL
MIC (E. coli JMI 2692): > 512 µg/mL
MIC alone (E. coli JMI 10767): ≤1 µg/mL
MIC (K. pneumo JMI 2697): > 512 µg/mL
MIC (A. baumanii JMI 2659; A. baumanii JMI 2659, Ges-14 (Cpase)): 512 µg/mL
MIC (A. baumanii JMI 2659; A. baumanii JMI 2659, enzyme Ges-14 (Cpase)): 512 µg/mL
MIC (K. pneumo JMI 2693): > 512 µg/mL
MIC (E. coli ATCC 25922): 0.25 µg/mL
MIC (E. coli JMI 4103): > 512 µg/mL
MIC (K. pneumo JMI 2681; K. pneumo JMI 2681, Oxa-48 (Cpase)): 512 µg/mL
MIC (K. pneumo JMI 2681; K. pneumo JMI 2681, enzyme Oxa-48 (Cpase)): 512 µg/mL

O=C(NO[C@H]1CCNC1)[C@@H]1CC[C@@H]2CN1C(=O)N2OS(=O)(=O)O [Ex. 2, (2S,5R)-7-Oxo-N-[(3S)-pyrrolidin-3-yloxy]-6-(sulfooxy)-1,6-diazabicyclo[3.2.1]octane-2-carboxamide]
MIC [1, 15]: > 64 µg/mL
MIC [1, 16]: 64 µg/mL
MIC [1, 17]: 64 µg/mL
MIC [1, 4]: 8 µg/mL
MIC [1, 18]: 8 µg/mL
MIC [1, 5]: 4 µg/mL
MIC [1, 6]: 4 µg/mL
MIC [1, 7]: 4 µg/mL
MIC [1, 8]: 4 µg/mL
MIC [1, 19]: 4 µg/mL
MIC [1, 9]: 16 µg/mL
MIC [1, 20]: 4 µg/mL
MIC [1, 21]: 4 µg/mL
MIC [1, 22]: 4 µg/mL
MIC [1, 23]: > 64 µg/mL
MIC [1, 10]: > 64 µg/mL
MIC [1, 24]: > 64 µg/mL
MIC [1, 11]: > 64 µg/mL
MIC [1, 25]: > 64 µg/mL
MIC [1, 12]: > 64 µg/mL
MIC [1, 13]: > 64 µg/mL
MIC [1, 26]: > 64 µg/mL
MIC [1, 27]: > 64 µg/mL

O=C(NO[C@H]1CCCNC1)[C@@H]1CC[C@@H]2CN1C(=O)N2OS(=O)(=O)O [Ex. 4, (2S,5R)-7-Oxo-N-[(3S)-piperidin-3-yloxy]-6-(sulfooxy)-1,6-diazabicyclo[3.2.1]octane-2-carboxamide]
MIC [1, 15]: > 64 µg/mL
MIC [1, 16]: 64 µg/mL
MIC [1, 17]: 64 µg/mL
MIC [1, 4]: 4 µg/mL
MIC [1, 18]: 4 µg/mL
MIC [1, 5]: 4 µg/mL
MIC [1, 6]: 4 µg/mL
MIC [1, 7]: 2 µg/mL
MIC [1, 8]: 4 µg/mL
MIC [1, 19]: 8 µg/mL
MIC [1, 9]: 2 µg/mL
MIC [1, 20]: 2 µg/mL
MIC [1, 21]: 2 µg/mL
MIC [1, 22]: 2 µg/mL
MIC [1, 23]: > 64 µg/mL
MIC [1, 10]: > 64 µg/mL
MIC [1, 24]: > 64 µg/mL
MIC [1, 11]: > 64 µg/mL
MIC [1, 25]: > 64 µg/mL
MIC [1, 12]: > 64 µg/mL
MIC [1, 13]: > 64 µg/mL
MIC [1, 26]: > 64 µg/mL
MIC [1, 27]: > 64 µg/mL

CC(=O)NNC(=O)[C@@H]1CC[C@@H]2CN1C(=O)N2OS(=O)(=O)O [Ex. 40, (2S,5R)-N′-acetyl-7-oxo-6-(sulfooxy)-1,6-diazabicyclo[3.2.1]octane-2-carbohydrazide]
MIC [1, 15]: > 64 µg/mL
MIC [1, 16]: 61 µg/mL
MIC [1, 17]: 61 µg/mL
MIC [1, 4]: 4 µg/mL
MIC [1, 18]: 4 µg/mL
MIC [1, 5]: 4 µg/mL
MIC [1, 6]: 2 µg/mL
MIC [1, 7]: 2 µg/mL
MIC [1, 8]: 2 µg/mL
MIC [1, 19]: 2 µg/mL
MIC [1, 9]: 1 µg/mL
MIC [1, 20]: 2 µg/mL
MIC [1, 21]: 2 µg/mL
MIC [1, 22]: 2 µg/mL
MIC [1, 23]: > 64 µg/mL
MIC [1, 10]: > 64 µg/mL
MIC [1, 24]: > 64 µg/mL
MIC [1, 11]: > 64 µg/mL
MIC [1, 25]: > 64 µg/mL
MIC [1, 12]: > 64 µg/mL
MIC [1, 13]: > 64 µg/mL
MIC [1, 26]: > 64 µg/mL
MIC [1, 27]: > 64 µg/mL

Source: US10544146B2, “Bicyclic compounds and their use as antibacterial agents and β-lactamase inhibitors” (priority 2011, dated 2020)
